Laboratory results taken from ChEMBL document CHEMBL3045921, “Synthesis and Acaricidal Activity of Pyrazole-5-carboxamide Derivatives” (1991).

Tests used:
Format in all cases: functional
Details in all cases: 120 h
Tetranychus urticae [1] = experiment: Acaricidal activity against Tetranychus urticae (two-spotted spider mite) in kidney bean leaf assessed as mortality at 12.5 ppm at 25 degC measured after 5 days
Tetranychus urticae [2] = experiment: Acaricidal activity against Tetranychus urticae (two-spotted spider mite) in kidney bean leaf assessed as mortality at 200 ppm at 25 degC measured after 5 days
Tetranychus urticae [3] = experiment: Acaricidal activity against Tetranychus urticae (two-spotted spider mite) in kidney bean leaf assessed as mortality at 50 ppm at 25 degC measured after 5 days
Tetranychus urticae [4] = experiment: Acaricidal activity against Tetranychus urticae (two-spotted spider mite) in kidney bean leaf assessed as mortality at 500 ppm at 25 degC measured after 5 days
Tetranychus urticae [5] = experiment: Acaricidal activity against Tetranychus urticae (two-spotted spider mite) in kidney bean leaf assessed as mortality at 3.1 ppm at 25 degC measured after 5 days

Compound: CCCCCCCCc1ccc(CNC(=O)c2c(Cl)c(CC)nn2C)cc1
- mortality at 12.5 ppm (Tetranychus urticae [1]): 0%
- mortality at 200 ppm (Tetranychus urticae [2]): 80%
- mortality at 50 ppm (Tetranychus urticae [3]): 30%
- mortality at 500 ppm (Tetranychus urticae [4]): 100%
- mortality at 3.1 ppm (Tetranychus urticae [5]): 0%

Compound: CCc1nn(C)c(C(=O)NCc2ccc([N+](=O)[O-])cc2)c1Cl
- mortality at 200 ppm (Tetranychus urticae [2]): 0%
- mortality at 50 ppm (Tetranychus urticae [3]): 0%
- mortality at 500 ppm (Tetranychus urticae [4]): 0%

Compound: CCc1nn(C)c(C(=O)NCc2ccc(CC(C)C)cc2)c1Cl
- mortality at 12.5 ppm (Tetranychus urticae [1]): 30%
- mortality at 200 ppm (Tetranychus urticae [2]): 100%
- mortality at 50 ppm (Tetranychus urticae [3]): 80%
- mortality at 500 ppm (Tetranychus urticae [4]): 100%
- mortality at 3.1 ppm (Tetranychus urticae [5]): 0%

Compound: CCc1nn(C)c(C(=O)NCc2ccc(C(C)CC)cc2)c1Cl (stereo not given)
- mortality at 12.5 ppm (Tetranychus urticae [1]): 0%
- mortality at 200 ppm (Tetranychus urticae [2]): 100%
- mortality at 50 ppm (Tetranychus urticae [3]): 100%
- mortality at 500 ppm (Tetranychus urticae [4]): 100%
- mortality at 3.1 ppm (Tetranychus urticae [5]): 0%

Compound: CCCCCc1ccc(CNC(=O)c2c(Cl)c(CC)nn2C)cc1
- mortality at 12.5 ppm (Tetranychus urticae [1]): 80%
- mortality at 200 ppm (Tetranychus urticae [2]): 100%
- mortality at 50 ppm (Tetranychus urticae [3]): 100%
- mortality at 500 ppm (Tetranychus urticae [4]): 100%
- mortality at 3.1 ppm (Tetranychus urticae [5]): 30%

Compound: CCc1nn(C)c(C(=O)NCc2ccc(CC(C)(C)C)cc2)c1Cl
- mortality at 12.5 ppm (Tetranychus urticae [1]): 80%
- mortality at 200 ppm (Tetranychus urticae [2]): 100%
- mortality at 50 ppm (Tetranychus urticae [3]): 100%
- mortality at 500 ppm (Tetranychus urticae [4]): 100%
- mortality at 3.1 ppm (Tetranychus urticae [5]): 0%

Compound: CCCCCCc1ccc(CNC(=O)c2c(Cl)c(CC)nn2C)cc1
- mortality at 12.5 ppm (Tetranychus urticae [1]): 0%
- mortality at 200 ppm (Tetranychus urticae [2]): 80%
- mortality at 50 ppm (Tetranychus urticae [3]): 30%
- mortality at 500 ppm (Tetranychus urticae [4]): 100%
- mortality at 3.1 ppm (Tetranychus urticae [5]): 0%

Compound: CCc1nn(C)c(C(=O)NCc2ccc([Si](C)(C)C)cc2)c1Cl
- mortality at 12.5 ppm (Tetranychus urticae [1]): 80%
- mortality at 200 ppm (Tetranychus urticae [2]): 100%
- mortality at 50 ppm (Tetranychus urticae [3]): 100%
- mortality at 500 ppm (Tetranychus urticae [4]): 100%
- mortality at 3.1 ppm (Tetranychus urticae [5]): 0%

Compound: CCc1nn(C)c(C(=O)NCc2ccc(OC)cc2)c1Cl
- mortality at 200 ppm (Tetranychus urticae [2]): 0%
- mortality at 50 ppm (Tetranychus urticae [3]): 0%
- mortality at 500 ppm (Tetranychus urticae [4]): 0%

Compound: CCOc1ccc(CNC(=O)c2c(Cl)c(CC)nn2C)cc1
- mortality at 200 ppm (Tetranychus urticae [2]): 0%
- mortality at 50 ppm (Tetranychus urticae [3]): 0%
- mortality at 500 ppm (Tetranychus urticae [4]): 0%

Compound: CCCOc1ccc(CNC(=O)c2c(Cl)c(CC)nn2C)cc1
- mortality at 200 ppm (Tetranychus urticae [2]): 80%
- mortality at 50 ppm (Tetranychus urticae [3]): 0%
- mortality at 500 ppm (Tetranychus urticae [4]): 100%

Compound: CCc1nn(C)c(C(=O)NCc2ccc(OC(C)C)cc2)c1Cl
- mortality at 200 ppm (Tetranychus urticae [2]): 30%
- mortality at 50 ppm (Tetranychus urticae [3]): 0%
- mortality at 500 ppm (Tetranychus urticae [4]): 80%

Compound: CCCCOc1ccc(CNC(=O)c2c(Cl)c(CC)nn2C)cc1
- mortality at 200 ppm (Tetranychus urticae [2]): 80%
- mortality at 50 ppm (Tetranychus urticae [3]): 30%
- mortality at 500 ppm (Tetranychus urticae [4]): 100%

Compound: CCc1nn(C)c(C(=O)NCc2ccc(OC(F)F)cc2)c1Cl
- mortality at 200 ppm (Tetranychus urticae [2]): 30%
- mortality at 50 ppm (Tetranychus urticae [3]): 0%
- mortality at 500 ppm (Tetranychus urticae [4]): 80%

Compound: CCc1nn(C)c(C(=O)NCc2ccc(OCC(F)(F)F)cc2)c1Cl
- mortality at 200 ppm (Tetranychus urticae [2]): 30%
- mortality at 50 ppm (Tetranychus urticae [3]): 0%
- mortality at 500 ppm (Tetranychus urticae [4]): 80%

Compound: CCOCCOc1ccc(CNC(=O)c2c(Cl)c(CC)nn2C)cc1
- mortality at 200 ppm (Tetranychus urticae [2]): 30%
- mortality at 50 ppm (Tetranychus urticae [3]): 0%
- mortality at 500 ppm (Tetranychus urticae [4]): 80%

Compound: CCOCc1ccc(CNC(=O)c2c(Cl)c(CC)nn2C)cc1
- mortality at 200 ppm (Tetranychus urticae [2]): 80%
- mortality at 50 ppm (Tetranychus urticae [3]): 0%
- mortality at 500 ppm (Tetranychus urticae [4]): 100%

Compound: CCc1nn(C)c(C(=O)NCc2ccc(N)cc2)c1Cl
- mortality at 200 ppm (Tetranychus urticae [2]): 0%
- mortality at 50 ppm (Tetranychus urticae [3]): 0%
- mortality at 500 ppm (Tetranychus urticae [4]): 0%

Compound: CCCNc1ccc(CNC(=O)c2c(Cl)c(CC)nn2C)cc1
- mortality at 200 ppm (Tetranychus urticae [2]): 0%
- mortality at 50 ppm (Tetranychus urticae [3]): 0%
- mortality at 500 ppm (Tetranychus urticae [4]): 80%

Compound: CCc1nn(C)c(C(=O)NCc2ccc(SC)cc2)c1Cl
- mortality at 200 ppm (Tetranychus urticae [2]): 80%
- mortality at 50 ppm (Tetranychus urticae [3]): 0%
- mortality at 500 ppm (Tetranychus urticae [4]): 100%

Compound: CCc1nn(C)c(C(=O)NCc2ccc([S+](C)[O-])cc2)c1Cl (stereo not given)
- mortality at 200 ppm (Tetranychus urticae [2]): 0%
- mortality at 50 ppm (Tetranychus urticae [3]): 0%
- mortality at 500 ppm (Tetranychus urticae [4]): 0%

Compound: CCc1nn(C)c(C(=O)NCc2ccc(S(C)(=O)=O)cc2)c1Cl
- mortality at 200 ppm (Tetranychus urticae [2]): 0%
- mortality at 50 ppm (Tetranychus urticae [3]): 0%
- mortality at 500 ppm (Tetranychus urticae [4]): 0%

Compound: CCc1nn(C)c(C(=O)NCc2ccc(C#N)cc2)c1Cl
- mortality at 200 ppm (Tetranychus urticae [2]): 0%
- mortality at 50 ppm (Tetranychus urticae [3]): 0%
- mortality at 500 ppm (Tetranychus urticae [4]): 0%

Compound: CCc1nn(C)c(C(=O)NCc2ccc(C(F)(F)F)cc2)c1Cl
- mortality at 200 ppm (Tetranychus urticae [2]): 80%
- mortality at 50 ppm (Tetranychus urticae [3]): 30%
- mortality at 500 ppm (Tetranychus urticae [4]): 100%

Compound: CCc1nn(C)c(C(=O)NCc2ccc(Br)cc2)c1Cl
- mortality at 200 ppm (Tetranychus urticae [2]): 0%
- mortality at 50 ppm (Tetranychus urticae [3]): 0%
- mortality at 500 ppm (Tetranychus urticae [4]): 0%

Compound: Cc1nn(C)c(C(=S)NCc2ccc(C(C)(C)C)cc2)c1Cl
- mortality at 200 ppm (Tetranychus urticae [2]): 30%
- mortality at 50 ppm (Tetranychus urticae [3]): 0%
- mortality at 500 ppm (Tetranychus urticae [4]): 80%

Compound: Cc1n[nH]c(C(=O)NCc2ccc(C(C)(C)C)cc2)c1Cl
- mortality at 200 ppm (Tetranychus urticae [2]): 0%
- mortality at 50 ppm (Tetranychus urticae [3]): 0%
- mortality at 500 ppm (Tetranychus urticae [4]): 0%

Compound: CCn1nc(C)c(Cl)c1C(=O)NCc1ccc(C(C)(C)C)cc1
- mortality at 200 ppm (Tetranychus urticae [2]): 0%
- mortality at 50 ppm (Tetranychus urticae [3]): 0%
- mortality at 500 ppm (Tetranychus urticae [4]): 0%

Compound: Cc1nn(C(C)C)c(C(=O)NCc2ccc(C(C)(C)C)cc2)c1Cl
- mortality at 200 ppm (Tetranychus urticae [2]): 0%
- mortality at 50 ppm (Tetranychus urticae [3]): 0%
- mortality at 500 ppm (Tetranychus urticae [4]): 0%

Compound: CCCCn1nc(C)c(Cl)c1C(=O)NCc1ccc(C(C)(C)C)cc1
- mortality at 200 ppm (Tetranychus urticae [2]): 0%
- mortality at 50 ppm (Tetranychus urticae [3]): 0%
- mortality at 500 ppm (Tetranychus urticae [4]): 0%

Compound: Cc1nn(-c2ccccc2)c(C(=O)NCc2ccc(C(C)(C)C)cc2)c1Cl
- mortality at 200 ppm (Tetranychus urticae [2]): 0%
- mortality at 50 ppm (Tetranychus urticae [3]): 0%
- mortality at 500 ppm (Tetranychus urticae [4]): 0%

Compound: Cc1nn(Cc2ccccc2)c(C(=O)NCc2ccc(C(C)(C)C)cc2)c1Cl
- mortality at 200 ppm (Tetranychus urticae [2]): 0%
- mortality at 50 ppm (Tetranychus urticae [3]): 0%
- mortality at 500 ppm (Tetranychus urticae [4]): 0%

Compound: Cc1nn(C(F)F)c(C(=O)NCc2ccc(C(C)(C)C)cc2)c1Cl
- mortality at 200 ppm (Tetranychus urticae [2]): 0%
- mortality at 50 ppm (Tetranychus urticae [3]): 0%
- mortality at 500 ppm (Tetranychus urticae [4]): 0%

Compound: Cc1nn(C)c(C(=O)NC(C)(C)C)c1Br
- mortality at 200 ppm (Tetranychus urticae [2]): 0%
- mortality at 50 ppm (Tetranychus urticae [3]): 0%
- mortality at 500 ppm (Tetranychus urticae [4]): 0%

Compound: Cc1nn(C)c(C(=O)Nc2ccc(C(C)(C)C)cc2)c1Br
- mortality at 200 ppm (Tetranychus urticae [2]): 0%
- mortality at 50 ppm (Tetranychus urticae [3]): 0%
- mortality at 500 ppm (Tetranychus urticae [4]): 0%

Compound: Cc1nn(C)c(C(=O)NCc2ccccc2)c1Br
- mortality at 200 ppm (Tetranychus urticae [2]): 0%
- mortality at 50 ppm (Tetranychus urticae [3]): 0%
- mortality at 500 ppm (Tetranychus urticae [4]): 0%

Compound: Cc1nn(C)c(C(=O)NC(C)c2ccccc2)c1Br (stereo not given)
- mortality at 200 ppm (Tetranychus urticae [2]): 0%
- mortality at 50 ppm (Tetranychus urticae [3]): 0%
- mortality at 500 ppm (Tetranychus urticae [4]): 0%

Compound: Cc1nn(C)c(C(=O)NC(C)(C)c2ccccc2)c1Br
- mortality at 200 ppm (Tetranychus urticae [2]): 0%
- mortality at 50 ppm (Tetranychus urticae [3]): 0%
- mortality at 500 ppm (Tetranychus urticae [4]): 0%

Compound: Cc1nn(C)c(C(=O)NC(c2ccccc2)C(C)C)c1Cl (stereo not given)
- mortality at 200 ppm (Tetranychus urticae [2]): 0%
- mortality at 50 ppm (Tetranychus urticae [3]): 0%
- mortality at 500 ppm (Tetranychus urticae [4]): 0%

Compound: Cc1nn(C)c(C(=O)NC(c2ccccc2)c2ccccc2)c1Br
- mortality at 200 ppm (Tetranychus urticae [2]): 0%
- mortality at 50 ppm (Tetranychus urticae [3]): 0%
- mortality at 500 ppm (Tetranychus urticae [4]): 0%

Compound: Cc1nn(C)c(C(=O)NC(C)c2ccc(C(C)(C)C)cc2)c1Br (stereo not given)
- mortality at 200 ppm (Tetranychus urticae [2]): 100%
- mortality at 50 ppm (Tetranychus urticae [3]): 80%
- mortality at 500 ppm (Tetranychus urticae [4]): 100%

Compound: Cc1nn(C)c(C(=O)NCc2ccccc2C(F)(F)F)c1Cl
- mortality at 200 ppm (Tetranychus urticae [2]): 0%
- mortality at 50 ppm (Tetranychus urticae [3]): 0%
- mortality at 500 ppm (Tetranychus urticae [4]): 0%

Compound: Cc1nn(C)c(C(=O)NCc2cccc(C(F)(F)F)c2)c1Cl
- mortality at 200 ppm (Tetranychus urticae [2]): 0%
- mortality at 50 ppm (Tetranychus urticae [3]): 0%
- mortality at 500 ppm (Tetranychus urticae [4]): 0%

Compound: Cc1nn(C)c(C(=O)NCc2ccc(C(F)(F)F)cc2)c1Cl
- mortality at 200 ppm (Tetranychus urticae [2]): 100%
- mortality at 50 ppm (Tetranychus urticae [3]): 80%
- mortality at 500 ppm (Tetranychus urticae [4]): 100%

Compound: Cc1nn(C)c(C(=O)N(C)Cc2ccc(C(C)(C)C)cc2)c1Cl
- mortality at 200 ppm (Tetranychus urticae [2]): 0%
- mortality at 50 ppm (Tetranychus urticae [3]): 0%
- mortality at 500 ppm (Tetranychus urticae [4]): 0%

Compound: Cc1nn(C)c(C(=O)OCc2ccc(C(C)(C)C)cc2)c1Br
- mortality at 200 ppm (Tetranychus urticae [2]): 0%
- mortality at 50 ppm (Tetranychus urticae [3]): 0%
- mortality at 500 ppm (Tetranychus urticae [4]): 0%

Compound: Cc1nn(C)c(C(=O)SCc2ccc(C(C)(C)C)cc2)c1Cl
- mortality at 200 ppm (Tetranychus urticae [2]): 0%
- mortality at 50 ppm (Tetranychus urticae [3]): 0%
- mortality at 500 ppm (Tetranychus urticae [4]): 30%
